Measurements: US20080312086A1, “PEST CONTROL SHEET” (MAKHTESHIM CHEMICAL WORKS LTD., priority 2000, published 2008)

What was measured:
watermelon crop = assay: Watermelon crop development under the pest control sheet; assay type: in vivo
Text: (§1) The present invention further provides a method for pest control. Said method may be applied in agriculture, horticulture or in garden maintenance. In agriculture and horticulture said method is applied as follows: subsequent to physically preparing the field and soil for planting, e.g. plowing, fumigating the soil and laying down of an irrigation system, the sheet is spread over the field so as to cover the soil [FIG. II, (1)], and is then secured to the ground. The sheet [FIG. II, (2), (3)] is then punctured at the spot where a seedling is intended to be planted so that a seedling [FIG. II, (4)] may be inserted through the hole [FIG. II, (5)] and planted in the soil. […] When the sheet contains a pesticide in the top layer, then pest control is maintained above the soil, in the area of the plant. This may also help in protecting the fruit/vegetable itself. Said method can be applied in gardens in a similar manner as described above. The sheet and method of the present invention have been applied to a watermelon crop. The experiments were conducted with three different concentrations of herbicide in the bottom layer.

weeds = assay: Weed control by the pest control sheet in a watermelon crop; assay type: in vivo
Text: as §1

[1] = 0.5 weight % of pesticide in bottom layer of sheet
[2] = 1 weight % of pesticide in bottom layer of sheet
[3] = 2 weight % of pesticide in bottom layer of sheet

CCOc1cc(Oc2ccc(C(F)(F)F)cc2Cl)ccc1[N+](=O)[O-] [Oxyfluorfen, 2-chloro-a,a,a-trifluoro-p-tolyl 3-ethoxy-4-nitrophenyl ether]
100%: Development (% of crop development in comparison to healthy crop on a scale of 0-100, 100 indicating a healthy crop) (watermelon crop; [1]) | Development (% of crop development in comparison to healthy crop on a scale of 0-100, 100 indicating a healthy crop) (watermelon crop; [2]) | Development (% of crop development in comparison to healthy crop on a scale of 0-100, 100 indicating a healthy crop) (watermelon crop; [3]) | Weed control (% of weed control on a scale of 0-100, 100 indicating total prevention of weed emergence) (weeds; [1]) | Weed control (% of weed control on a scale of 0-100, 100 indicating total prevention of weed emergence) (weeds; [2]) | Weed control (% of weed control on a scale of 0-100, 100 indicating total prevention of weed emergence) (weeds; [3])
